The results in this text go back to DBAASP.

SMILES strings stand for the structures. In brackets after ≈: the same amount, converted by molar mass.

Test systems include Pseudomonas aeruginosa 1; Pseudomonas aeruginosa 2; Staphylococcus aureus; Escherichia coli AB94012; Edwardsiella tarda; Escherichia coli; Miamiensis avidus; Streptococcus iniae; Trichophyton rubrum.
Experiment in all cases: ≥ marks a high value that may be exact or a test limit, other limits are often not marked, values filed in µg/mL are converted to µM
In experiment [1] the test system is Candida albicans ATCC 90028.
In experiment [2] the test system is Candida parapsilosis ATCC 22019.
The test system of experiment [3] is Enterococcus faecium ATCC 19434.
Experiment [4] concerns Escherichia coli O157:H7 ATCC 43895.
Experiment [5] has as its system Pseudomonas aeruginosa ATCC 27853.
Experiment [6] concerns Salmonella typhimurium ATCC 19430.
Experiment [7] concerns Staphylococcus aureus ATCC 25923.
The subject of experiment [8] is Trichophyton rubrum KCTC 6345.
Experiment [9] concerns Trichosporon beigelii KCTC 7707.
Experiment [10] deals with Enterococcus faecalis ATCC 29212.
Experiment [11] relates to Escherichia coli ATCC 32218.
Experiment [12] concerns Staphylococcus aureus ATCC 29213.
Experiment [13] concerns Escherichia coli ATCC 25922.
For experiment [14], the system named is Pseudomonas aeruginosa AB93066.
The subject of experiment [15] is Pseudomonas aeruginosa ATCC 9027.
For experiment [16], the system named is Staphylococcus aureus AB94004.
The test system of experiment [17] is Staphylococcus aureus ATCC 6538.
Experiment [18] deals with Staphylococcus aureus P1374.
Experiment [19] relates to Staphylococcus aureus P1381.
The test system of experiment [20] is Candida albicans KCCM 11282.
Experiment [21] deals with Saccharomyces cerevisiae KCCM 11293.
For experiment [22], the system named is Vibrio tapetis KCTC 12728.
For experiment [23], the system named is Escherichia coli ATCC 8739.
In experiment [24] the test system is Trichophyton mentagrophytes.
Experiment [25] concerns Bacillus subtilis CCT 2576.
The subject of experiment [26] is Pseudomonas aeruginosa ATCC 15422.

Broadly, the MIC is the lowest concentration that inhibits growth of the organism. A high value points to weaker potency.

As for `CC[C@H](C)[C@H](NC(=O)[C@H](CCCN=C(N)N)NC(=O)CNC(=O)[C@@H](NC(=O)[C@@H]1CCCN1C(=O)[C@H](Cc1ccccc1)NC(=O)[C@H](CCC(N)=O)NC(=O)[C@H](CC(C)C)NC(=O)CNC(=O)[C@H](C)N)C(C)C)C(=O)NCC(=O)N[C@@H](CCCN=C(N)N)C(=O)N[C@@H](CC(C)C)C(=O)N[C@@H](CC(C)C)C(=O)N[C@@H](CCCN=C(N)N)C(=O)N[C@@H](CCCCN)C(=O)O` [AGLQFPVGRIGRLLRK], the MIC in [1] is 6.3 µM (≈ 11.2 µg/mL); in experiment [2], 12.5 µM (≈ 22.3 µg/mL); in experiment [3], 12.5 µM (≈ 22.3 µg/mL); in experiment [4] it was 6.3 µM (≈ 11.2 µg/mL); against Pseudomonas aeruginosa 1, 6.3 µM (≈ 11.2 µg/mL); in the experiment with Pseudomonas aeruginosa 2, 12.5 µM (≈ 22.3 µg/mL). Also, the MIC in experiment [5] was found to be 12.5 µM (≈ 22.3 µg/mL); in [6], 12.5 µM (≈ 22.3 µg/mL); in [7], 25 µM (≈ 44.5 µg/mL); against Staphylococcus aureus, 12.5 µM (≈ 22.3 µg/mL); in [8] it was 6.3 µM (≈ 11.2 µg/mL); in experiment [9], 6.3 µM (≈ 11.2 µg/mL).

Consider `CC(C)C[C@H](NC(=O)[C@H](C)N)C(=O)N[C@@H](CCCCN)C(=O)N[C@@H](Cc1ccc(O)cc1)C(=O)N[C@@H](CCCN=C(N)N)C(=O)N[C@@H](CC(C)C)C(=O)N[C@@H](Cc1ccccc1)C(=O)N[C@@H](CCCCN)C(=O)N[C@@H](CCCCN)C(=O)N[C@@H](CC(C)C)C(=O)N[C@@H](CCCCN)C(=O)N[C@@H](CCCCN)C(=O)N[C@@H](Cc1ccccc1)C(=O)O` [ALKYRLFKKLKKF], for which the MIC is 1.19 µM (≈ 2 µg/mL) in experiment [10], at least 35.6 µM in [11] and 0.594 µM (≈ 1 µg/mL) in experiment [12].

In the case of `CC[C@H](C)[C@H](NC(=O)[C@H](CO)NC(=O)[C@H](CCCCN)NC(=O)[C@@H](NC(=O)CNC(=O)[C@H](CCCCN)NC(=O)[C@H](Cc1c[nH]c2ccccc12)NC(=O)[C@H](CC(C)C)NC(=O)[C@H](CCCCN)NC(=O)CNC(=O)[C@H](CC(C)C)NC(=O)[C@@H](NC(=O)[C@@H](N)Cc1ccccc1)[C@@H](C)CC)C(C)C)C(=O)N[C@@H](Cc1ccccc1)C(N)=O` [FILGKLWKGVKSIF], the MIC with Escherichia coli AB94012 was 15.3 µM (≈ 25 µg/mL); in experiment [13], 30.6 µM (≈ 50 µg/mL); in [14], 30.6 µM (≈ 50 µg/mL); in experiment [15] it was 30.6 µM (≈ 50 µg/mL); in [16], 3.82 µM (≈ 6.25 µg/mL); in experiment [7] it was 3.82 µM (≈ 6.25 µg/mL). Besides, the minimal inhibitory concentration (MIC) in [17] is 3.82 µM (≈ 6.25 µg/mL); in experiment [18], 7.64 µM (≈ 12.5 µg/mL); in experiment [19] it was 7.64 µM (≈ 12.5 µg/mL).

Regarding `CC[C@H](C)[C@H](NC(=O)[C@H](C)NC(=O)[C@H](Cc1cnc[nH]1)NC(=O)CNC(=O)[C@@H](NC(=O)CNC(=O)[C@H](Cc1cnc[nH]1)NC(=O)[C@H](CC(C)C)NC(=O)[C@H](CC(C)C)NC(=O)[C@H](CCSC)NC(=O)CNC(=O)[C@H](CC(C)C)NC(=O)[C@@H](N)Cc1ccccc1)C(C)C)C(=O)N[C@@H](Cc1cnc[nH]1)C(=O)NCC(=O)N[C@@H](CC(C)C)C(=O)N[C@H](C(=O)N[C@@H](Cc1cnc[nH]1)C(=O)NCC(=O)N[C@@H](CCCCN)C(=O)N[C@@H](CCC(N)=O)C(=O)N[C@@H](CC(N)=O)C(=O)N[C@H](C(=O)N[C@@H](CCC(=O)O)C(=O)O)C(C)C)[C@@H](C)CC` [FLGMLLHGVGHAIHGLIHGKQNVE], the MIC in [20] was 22.5 µM (≈ 58 µg/mL); against Edwardsiella tarda, at least 90 µM; against Escherichia coli it was 45 µM (≈ 116 µg/mL); against Miamiensis avidus it was 0.4 µM (≈ 1.03 µg/mL); in experiment [21], 11.2 µM (≈ 29 µg/mL); against Streptococcus iniae, at least 45 µM. The same compound had an MIC in experiment [22] of 22.5 µM (≈ 58 µg/mL).

`CSCC[C@H](NC(=O)[C@H](CO)NC(=O)[C@H](C)NC(=O)[C@H](C)NC(=O)[C@H](C)NC(=O)[C@H](C)NC(=O)[C@H](C)NC(=O)[C@H](C)NC(=O)[C@H](C)NC(=O)[C@H](CC(N)=O)NC(=O)[C@H](C)NC(=O)[C@H](C)NC(=O)[C@@H](NC(=O)[C@H](CC(C)C)NC(=O)[C@H](C)NC(=O)[C@H](C)NC(=O)[C@H](C)NC(=O)[C@H](C)NC(=O)[C@H](C)NC(=O)[C@H](C)NC(=O)[C@H](CC(=O)O)NC(=O)[C@H](CO)NC(=O)[C@H](C)NC(=O)[C@@H](NC(=O)[C@@H](N)Cc1cnc[nH]1)[C@@H](C)O)[C@@H](C)O)C(=O)N[C@@H](C)C(=O)O` [HTASDAAAAAALTAANAAAAAAASMA]: the MIC in experiment [2] was at least 115 µM; in experiment [23] it was 30 µM (≈ 66.4 µg/mL); in experiment [7], over 115 µM; in experiment [24] it was at least 115 µM; with Trichophyton rubrum, at least 115 µM.

With `CC[C@H](C)[C@H](N)C(=O)N[C@@H](CC(N)=O)C(=O)N[C@@H](Cc1c[nH]c2ccccc12)C(=O)N[C@@H](CCCCN)C(=O)N[C@@H](CCCCN)C(=O)N[C@@H](CCSC)C(=O)N[C@@H](C)C(=O)N[C@@H](C)C(=O)N[C@H](C(=O)N[C@@H](C)C(=O)N[C@@H](CC(C)C)C(=O)N[C@@H](CCCCN)C(=O)N[C@@H](CCSC)C(=O)N[C@H](C(N)=O)[C@@H](C)CC)[C@@H](C)O` [INWKKMAATALKMI], the MIC is 2.16 µM (≈ 3.5 µg/mL) in experiment [25], 2.41 µM (≈ 3.9 µg/mL) in experiment [13], 9.64 µM (≈ 15.6 µg/mL) in experiment [26] and 1.79 µM (≈ 2.9 µg/mL) in experiment [17].
